Experimental data published in patent publication US8895585B2, “Nicotinamide derivative or salt thereof” (FUJIFILM Corporation, priority 2010, dated 2014).

Target: T1, glutathione S-transferase (GST)-fused full-length human Syk protein (Homo sapiens, UniProt P43405)
T1 construct: (GST)-fused full-length human Syk protein; GST (glutathione S-transferase); purchased Carna Biosciences
Experiment: Syk enzyme assay
Assay type: biochemical
Conditions: Syk enzyme assay, Test Example 1; read-out: IC50 of Syk-inhibitory activity
Method: A glutathione S-transferase (GST)-fused full-length human Syk protein (Carna Biosciences), which had been generated using a Baculovirus expression system, was used in the Syk enzyme assay.
15 μl of a reaction solution (1.2 ng Syk, 20 mM HEPES, 10 mM MgCl2, 50 mM NaCl, 2 mM DTT, 0.05% BSA, pH 7.0) containing a Syk protein and a predetermined concentration of a test compound was shaken for 2 minutes, and it was then left at rest at room temperature for 13 minutes. Thereafter, 5 μl of Biotin-EDPDYEWPSA-NH2 (final concentration: 0.4 μM) serving as a substrate peptide and 5 μl of ATP (final concentration: 27 μM) were added to the reaction solution, and the obtained mixture was then shaken for 2 minutes. The reaction solution was further left at rest at room temperature for 40 minutes, so as to carry out an enzyme reaction.
Thereafter, 50 μl of a reaction termination solution [5 μg/ml Streptavidin, 0.18 μg/ml PT66-K, 30 mM HEPES (pH 7.0), 150 mM KF, 75 mM EDTA, 0.15% BSA, 0.075% Tween20], which contained Streptavidin-Xlent (Cisbio) and Mab PT66-K (Cisbio), was added to the reaction solution to terminate the enzyme reaction. At the same time, the reaction solution was left at rest at room temperature for 1 hour, so as to carry out an antigen-antibody reaction. Thereafter, using EnVision (PerkinElmer), the time-resolved fluorescence was measured at 615 nm and 665 nm, so that the phosphorylation of the substrate peptide was measured.
In addition, the following are standards for evaluating IC50 of Syk-inhibitory activity used in Table 21. • A: Up to 10 nM • B: 10 to 50 nM • C: 50 to 100 nM • D: 100 to 1000 nM The set of numbers (XYZ-xyz) given in each Example number column indicates the corresponding Example number (Example XYZ-xyz) in Table 21.

Structure (SMILES) | IC50
COC(C)CCOc1ncc(Nc2nc(N[C@@H]3CCCC[C@@H]3N)c(F)cc2C(N)=O)c2ccccc12 (relative stereo) [Example 004-151, 6-(cis-2-aminocyclohexylamino)-5-fluoro-2-((1-(3-methoxybutoxy)isoquinolin-4-yl)amino)-nicotinamide] | 100 to 1000 nM
CCOCCOCCOc1ncc(Nc2nc(N[C@@H]3CCCC[C@@H]3N)c(F)cc2C(N)=O)c2ccccc12 (relative stereo) [Example 004-152, 6-(cis-2-aminocyclohexylamino)-2-((1-(2-(2-ethoxyethoxy)ethoxy)isoquinolin-4-yl)amino)-5-fluoronicotinamide] | 100 to 1000 nM
COc1ncc(Nc2nc(N[C@@H]3CCCC[C@@H]3N)c(F)cc2C(N)=O)c2ccccc12 (relative stereo) [Example 004-153, 6-(cis-2-aminocyclohexylamino)-5-fluoro-2-((1-methoxyisoquinolin-4-yl)amino)-nicotinamide] | 100 to 1000 nM
COCC(C)Oc1ncc(Nc2nc(N[C@@H]3CCCC[C@@H]3N)c(F)cc2C(N)=O)c2ccccc12 (relative stereo) [Example 004-154, 6-(cis-2-aminocyclohexylamino)-5-fluoro-2-((1-((1-methoxypropan-2-yl)oxy)isoquinolin-4-yl)amino)nicotinamide] | 100 to 1000 nM
COc1nccc2c(Nc3nc(N[C@@H]4CCCC[C@@H]4N)c(F)cc3C(N)=O)cccc12 (relative stereo) [Example 004-155, 6-(cis-2-aminocyclohexylamino)-5-fluoro-2-((1-methoxyisoquinolin-5-yl)amino)-nicotinamide] | < 10 nM
COCC(C)Oc1nccc2c(Nc3nc(N[C@@H]4CCCC[C@@H]4N)c(F)cc3C(N)=O)cccc12 (relative stereo) [Example 004-156, 6-(cis-2-aminocyclohexylamino)-5-fluoro-2-((1-((1-methoxypropan-2-yl)oxy)isoquinolin-5-yl)amino)nicotinamide] | < 10 nM
COC(C)CCOc1nccc2c(Nc3nc(N[C@@H]4CCCC[C@@H]4N)c(F)cc3C(N)=O)cccc12 (relative stereo) [Example 004-157, 6-(cis-2-aminocyclohexylamino)-5-fluoro-2-((1-(3-methoxybutoxy)isoquinolin-5-yl)amino)-nicotinamide] | 10 to 50 nM
CCOCCOCCOc1nccc2c(Nc3nc(N[C@@H]4CCCC[C@@H]4N)c(F)cc3C(N)=O)cccc12 (relative stereo) [Example 004-158, 6-(cis-2-aminocyclohexylamino)-2-((1-(2-(2-ethoxyethoxy)ethoxy)isoquinolin-5-yl)amino)-5-fluoronicotinamide] | 10 to 50 nM
CC(C)COc1nccc2cc(Nc3nc(N[C@@H]4CCCC[C@@H]4N)c(F)cc3C(N)=O)ccc12 (relative stereo) [Example 004-167, 6-(cis-2-aminocyclohexylamino)-5-fluoro-2-((1-isobutoxyisoquinolin-6-yl)amino)-nicotinamide] | < 10 nM
CC(C)COCCOc1nccc2cc(Nc3nc(N[C@@H]4CCCC[C@@H]4N)c(F)cc3C(N)=O)ccc12 (relative stereo) [Example 004-170, 6-(cis-2-aminocyclohexylamino)-5-fluoro-2-((1-(2-isobutoxyethoxy)isoquinolin-6-yl)amino)-nicotinamide] | < 10 nM
CC(C)COc1ccccc1-c1cncc(Nc2nc(N[C@@H]3CCCC[C@@H]3N)c(F)cc2C(N)=O)c1 (relative stereo) [Example 004-183, 6-(cis-2-aminocyclohexylamino)-5-fluoro-2-((5-(2-isobutoxyphenyl)pyridin-3-yl)amino)-nicotinamide] | 50 to 100 nM

More lines, now with the values ahead:

IC50 | Structure (SMILES)
< 10 nM | CCOc1nccc2cc(Nc3nc(N[C@@H]4CCCC[C@@H]4N)c(F)cc3C(N)=O)ccc12 (relative stereo) [Example 004-165, 6-(cis-2-aminocyclohexylamino)-2-((1-ethoxyisoquinolin-6-yl)amino)-5-fluoronicotinamide]
< 10 nM | CC(C)Oc1nccc2cc(Nc3nc(N[C@@H]4CCCC[C@@H]4N)c(F)cc3C(N)=O)ccc12 (relative stereo) [Example 004-166, 6-(cis-2-aminocyclohexylamino)-5-fluoro-2-((1-isopropoxyisoquinolin-6-yl)amino)-nicotinamide]
< 10 nM | CCOCCOCCOc1nccc2cc(Nc3nc(N[C@@H]4CCCC[C@@H]4N)c(F)cc3C(N)=O)ccc12 (relative stereo) [Example 004-169, 6-(cis-2-aminocyclohexylamino)-2-((1-(2-(2-ethoxyethoxy)ethoxy)isoquinolin-6-yl)amino)-5-fluoronicotinamide]
< 10 nM | NC(=O)c1cc(F)c(N[C@@H]2CCCC[C@@H]2N)nc1Nc1ccc2c(OCC3CCCO3)nccc2c1 (relative stereo) [Example 004-171, 6-(cis-2-aminocyclohexylamino)-5-fluoro-2-((1-((tetrahydrofuran-2-yl)-methoxy)isoquinolin-6-yl)amino)nicotinamide]
< 10 nM | CCOc1ccc2cc(Nc3nc(N[C@@H]4CCCC[C@@H]4N)c(F)cc3C(N)=O)cnc2c1 (relative stereo) [Example 004-173, 6-(cis-2-aminocyclohexylamino)-2-((7-ethoxyquinolin-3-yl)amino)-5-fluoronicotinamide]
< 10 nM | CCCOc1ccc2cc(Nc3nc(N[C@@H]4CCCC[C@@H]4N)c(F)cc3C(N)=O)cnc2c1 (relative stereo) [Example 004-174, 6-(cis-2-aminocyclohexylamino)-5-fluoro-2-((7-propoxyquinolin-3-yl)amino)nicotinamide]
< 10 nM | CCOc1cnc2cc(Nc3nc(N[C@@H]4CCCC[C@@H]4N)c(F)cc3C(N)=O)ccc2n1 (relative stereo) [Example 004-176, 6-(cis-2-aminocyclohexylamino)-2-((2-ethoxyquinoxalin-6-yl)amino)-5-fluoronicotinamide]
10 to 50 nM | CCCOc1cnc2cc(Nc3nc(N[C@@H]4CCCC[C@@H]4N)c(F)cc3C(N)=O)ccc2n1 (relative stereo) [Example 004-177, 6-(cis-2-aminocyclohexylamino)-5-fluoro-2-((2-propoxyquinoxalin-6-yl)amino)nicotinamide]
10 to 50 nM | COCCOc1cnc2cc(Nc3nc(N[C@@H]4CCCC[C@@H]4N)c(F)cc3C(N)=O)ccc2n1 (relative stereo) [Example 004-178, 6-(cis-2-aminocyclohexylamino)-5-fluoro-2-((2-(2-methoxyethoxy)quinoxalin-6-yl)amino)-nicotinamide]
< 10 nM | COCCOCCOc1cnc2cc(Nc3nc(N[C@@H]4CCCC[C@@H]4N)c(F)cc3C(N)=O)ccc2n1 (relative stereo) [Example 004-179, 6-(cis-2-aminocyclohexylamino)-5-fluoro-2-((2-(2-(2-methoxyethoxy)ethoxy)quinoxalin-6-yl)amino)nicotinamide]
< 10 nM | CCOc1ccccc1-c1cncc(Nc2nc(N[C@@H]3CCCC[C@@H]3N)c(F)cc2C(N)=O)c1 (relative stereo) [Example 004-182, 6-(cis-2-aminocyclohexylamino)-2-((5-(2-ethoxyphenyl)pyridin-3-yl)amino)-5-fluoronicotinamide]
< 10 nM | COCCOc1ccccc1-c1cncc(Nc2nc(N[C@@H]3CCCC[C@@H]3N)c(F)cc2C(N)=O)c1 (relative stereo) [Example 004-185, 6-(cis-2-aminocyclohexylamino)-5-fluoro-2-((5-(2-(2-methoxyethoxy)phenyl)pyridin-3-yl)amino)nicotinamide]
< 10 nM | NC(=O)c1cc(F)c(N[C@@H]2CCCC[C@@H]2N)nc1Nc1cncc(-c2ccccc2O)c1 (relative stereo) [Example 004-186, 6-(cis-2-aminocyclohexylamino)-5-fluoro-2-((5-(2-hydroxyphenyl)pyridin-3-yl)amino)nicotinamide]
50 to 100 nM | NC(=O)c1cc(F)c(N[C@@H]2CCCC[C@@H]2N)nc1Nc1cncc(COCc2ccccc2)c1 (relative stereo) [Example 004-189, 6-(cis-2-aminocyclohexylamino)-2-((5-((benzyloxy)methyl)pyridin-3-yl)amino)-5-fluoronicotinamide]
50 to 100 nM | NC(=O)c1cc(F)c(N[C@@H]2CCCC[C@@H]2N)nc1Nc1ccnc(COCc2ccccc2)c1 (relative stereo) [Example 004-192, 6-(cis-2-aminocyclohexylamino)-2-((2-((benzyloxy)methyl)pyridin-4-yl)amino)-5-fluoronicotinamide]
50 to 100 nM | NC(=O)c1cc(F)c(N[C@@H]2CCCC[C@@H]2N)nc1Nc1cncc(CO)c1 (relative stereo) [Example 004-193, 6-(cis-2-aminocyclohexylamino)-5-fluoro-2-((5-(hydroxymethyl)pyridin-3-yl)amino)nicotinamide]
